{"source": "patent US6716829B2", "about": "“Aldosterone antagonist and cyclooxygenase-2 inhibitor combination therapy to prevent or treat inflammation-related cardiovascular disorders” (Pharmacia Corporation, priority 2000, dated 2004)", "key": {"[1]": {"system": "osteopontin", "experiment": "Assay B: osteopontin immunohistochemistry in the heart", "assay_type": "in vivo, Male Sprague Dawley rats", "details": "aldosterone-infused rats, eplerenone 100 mpk, increased dietary potassium group", "procedure": "Assay B: In Vivo Aldosterone Infusion Model Male Sprague Dawley rats (n=39; BW=250 g) 2. Aldosterone (0.75 mg/hr, sc via alzet minipump) 2. […] Determination of osteopontin and COX-2 was performed by quantitative RT-PCR (Taqman). Osteopontin was also identified in the heart by immunohistochemistry."}, "[2]": {"system": "interstitial collagen", "experiment": "Assay C: image analysis of interstitial collagen (Picrosirius Red), collagen volume fraction", "assay_type": "in vivo, Male Sprague-Dawley rats", "details": "for ICVF (%): interstitial collagen volume fraction, eplerenone dose 100 mg/kg/day", "procedure": "The procedure of Assay B was expanded upon in a further study. […] Myocardial tissue from animals in each treatment group was examined after 7, 14, or 30 days of treatment. […] Lesions were preceded by the expression and progressive upregulation of proinflammatory molecules. […] Prior to surgery the animals were individually weighed and placed in one of the following groups: […] Potassium chloride supplementation was added to the saline solution in order to prevent the potential hypokalemia associated with aldosterone excess. […] Louis, Mo.) was inserted subcutaneously at the nape of the neck. Aldosterone was administered at a dose of 0.75 µg/hour. […] Animals were sacrificed from each group (n=8-13) after 7, 14, or 30 days of treatment. The equatorial regions of the heart were routinely processed into paraffin with an automated tissue processor (Hypercenter XP, Shandon/Lipshaw Inc., Pittsburgh, Pa.) and embedded into fresh paraffin apical side down (Shandon Embedding Center, Shandon/Lipshaw Inc.). Five and 10 µm sections were cut from each block of tissue using a Leica RM2035 rotary microtome (Leica Inc., Houston, Tex.) and mounted on Superfrost/Plus microscope slides (Fisher Scientific, Pittsburgh, Pa.). Ten […]m sections were stained with the collagen specific stain, Picrosirius Red F3BA (Saturated Picric Acid (Sigma Chemical, St. […] Waterbury, Conn.) (6). Mounted tissues were hydrated with water. […] Slides were coverslipped with #1 cover glass using Permount Histological Mounting Media (Fisher Scientific). Two slides mounted with 5 µm sections were cut for each animal. One slide was processed for H&E staining and one for Periodic Acid Schiff (PAS) staining. The H&E and PAS were used for pathological scoring of the hearts. Picrosirius Red F3BA stained slides were used to quantify interstitial collagen with a Videometric 150 Image Analysis System (Oncor Inc., Gaitherburg, Md.). […] Garden City, N.Y.) attached to a Nikon Optiphot microscope (Nikon Inc.). A Toshiba 3 CCD Color Video Camera (Model#[…] Corp. Japan) relayed the images in RGB format from the microscope to a 386 computer with a […] video board. The […] video board/[…] software application (Oncor Inc.) converted RGB images to HIS (Hue, Intensity, Saturation) format for display and analysis on a Sony Trinitron Color Video Monitor (Model#PVM-1342Q, Sony Corp, Tokyo, Japan) at a magnification of 305×. […] The […] application then measured only pixels which fell into thresholding limits. The system was calibrated with a micrometer scale (EM Sciences, FT. Washington, Pa. 19034), which allowed data to be expressed in mm^2 or […]m^2."}, "[3]": {"system": "osteopontin", "experiment": "Assay A: immunostaining of hearts with osteopontin-specific antibody", "assay_type": "in vivo, Male Wistar rats", "details": "angiotensin II-infused, saline-drinking rats; eplerenone 100 mpk; aldosterone replacement in adrenalectomized rats", "source_text": "Osteopontin (also known as early T-cell activation-1, Eta-1) is a secreted glycoprotein with pro-inflammatory characteristics that mediates chemoattraction, activation and migration of monocytes."}, "[4]": {"details": "group mean, data used for Table 15 (14 days of treatment)"}, "[5]": {"details": "group mean, data used for Table 16 (30 days of treatment)"}, "[6]": {"details": "mean ± SEM after 7 days of treatment"}, "[7]": {"details": "mean ± SEM after 14 days of treatment"}, "[8]": {"details": "mean ± SEM after 30 days of treatment"}}, "note": "Several values for one entry are separate records, joined by “and”; a condition that tells them apart may be missing. Equal entries are not always repeated.", "data": [{"smiles": "C[C@]12CCC(=O)C=C1CC[C@@H]1[C@@H]2[C@@H](O)C[C@]2(C=O)[C@@H](C(=O)CO)CC[C@@H]12", "note": "[Aldosterone]", "values": [{"measurement": "Osteopontin expression in the heart (immunostaining)", "setting": "[1]", "result": "clearly identified in the media of coronary arteries"}, {"measurement": "Collagen Volume Fraction (%)", "setting": "[2]; [4]", "result": 5.1, "unit": "%"}, {"measurement": "Collagen Volume Fraction (%)", "setting": "[2]; [5]", "result": 7.9, "unit": "%"}, {"measurement": "Collagen Volume Fraction (%)", "setting": "[2]; individual rats, data used for Table 15 (14 days of treatment), incl. rat marked * excluded from statistics, listed as Aldosterone + salt", "result": "4.4% and 5.4% and 3.2% (2×) and 5.9% (2×) and 4.6% (2×) and 3.9% and 4.8% and 3.4% and 6.4% and 9.0%"}, {"measurement": "Collagen Volume Fraction (%)", "setting": "[2]; individual rats, data used for Table 16 (30 days of treatment), incl. rat marked * excluded from statistics, listed as Aldosterone + salt", "result": "6.6% and 8.8% and 7.2% (2×) and 7.1% and 9.3% and 6.8% and 4.0% and 14.5%"}, {"measurement": "ICVF (%)", "setting": "[2]; [6]", "result": "5.6 ± 0.6", "unit": "%"}, {"measurement": "ICVF (%)", "setting": "[2]; [7]", "result": "5.1 ±0.5", "unit": "%"}, {"measurement": "ICVF (%)", "setting": "[2]; [8]", "result": "7.9 ± 1.0", "unit": "%"}, {"measurement": "Osteopontin expression in the heart (immunostaining)", "setting": "[3]", "result": "restored osteopontin expression"}]}, {"smiles": "COC(=O)[C@@H]1CC2=CC(=O)CC[C@]2(C)[C@@]23O[C@@H]2C[C@@]2(C)[C@@H](CC[C@@]24CCC(=O)O4)[C@H]13", "note": "[Eplerenone]", "values": [{"measurement": "Osteopontin expression in the heart (immunostaining)", "setting": "[1]", "result": "prevented the expression of osteopontin"}, {"measurement": "Osteopontin expression in the heart (immunostaining)", "setting": "[1]; listed as eplerenone", "result": "prevention"}, {"measurement": "Collagen Volume Fraction (%)", "setting": "[2]; [4]", "result": 4.5, "unit": "%"}, {"measurement": "Collagen Volume Fraction (%)", "setting": "[2]; [5]", "result": 6.2, "unit": "%"}, {"measurement": "Collagen Volume Fraction (%)", "setting": "[2]; individual rats, data used for Table 15 (14 days of treatment), incl. rat marked * excluded from statistics, listed as Eplerenone + aldosterone + salt", "result": "4.1% and 6.2% and 3.9% and 3.7% (2×) and 4.2% and 3.5% and 3.3% and 5.2% and 5.6% and 6.0%"}, {"measurement": "Collagen Volume Fraction (%)", "setting": "[2]; individual rats, data used for Table 16 (30 days of treatment), incl. rat marked * excluded from statistics, listed as Eplerenone + aldosterone + salt", "result": "3.4% and 5.0% and 6.5% and 7.9% and 7.1% and 6.3% and 6.1% and 5.4% and 7.8% and 4.4%"}, {"measurement": "ICVF (%)", "setting": "[2]; [6]", "result": "5.4 ± 0.6", "unit": "%"}, {"measurement": "ICVF (%)", "setting": "[2]; [7]", "result": "4.5 ± 0.3", "unit": "%"}, {"measurement": "ICVF (%)", "setting": "[2]; [8]", "result": "6.2 ± 0.5", "unit": "%"}, {"measurement": "Osteopontin expression in the heart (immunostaining)", "setting": "[3]", "result": "prevented osteopontin expression"}]}]}
